Source: patent US20180051017A1, “AGENT FOR TREATMENT OF SCHIZOPHRENIA” (Sumitomo Dainippon Pharma Co., Ltd., priority 2002, published 2018)
Where a name gives a salt, the structure may show the parent alone.

System: patients with schizophrenia in the acute exacerbation phase
Experiment: First stage phase II clinical trial: extrapyramidal symptom rating scales (AIMS, BAS, SAS)
Type: in vivo, human
Conditions: for SAS (parkinsonism) score change, Average (SD) / BAS Global score (akathisia) change, Average (SD) / AIMS (dyskinesia) score change, Average (SD): n = 44-47
Description: According to the procedures as shown in Table 1 as described below, the placebo-controlled double blind experiment was done on 149 patients with schizophrenia in the acute exacerbation phase at 15 facilities in USA. The efficacy and safeness were studied when SM-13496 at a dose of 40 mg or 120 mg, or a placebo was orally administered once a day for 6 weeks after placebo washout.
As is shown in Table 7, among the adverse events, the main side effects, a relationship of which to the SM-13496 cannot be denied, was suppression, nausea, akathisia, free-floating vertigo (excluding rotatory vertigo), sleepiness, headache. The occurrence of dystonic reaction was low (less than 4%) in the SM-13496-treated groups.

Structure (SMILES): O=C1[C@@H]2[C@@H]3CC[C@@H](C3)[C@@H]2C(=O)N1C[C@@H]1CCCC[C@H]1CN1CCN(c2nsc3ccccc23)CC1 [SM-13496, (1R,2S,3R,4S)-N-[(1R,2R)-2-[4-(1,2-benzoisothiazol-3-yl)-1-piperazinyl-methyl]-1-cyclohexylmethyl]-2,3-bicyclo[2.2.1]heptanedicarboximide hydrochloride]
- SAS (parkinsonism) score change, Average (SD) (40 mg orally once a day for 6 weeks, p 0.588 vs placebo): 0.1 (1.08)
- BAS Global score (akathisia) change, Average (SD) (40 mg orally once a day for 6 weeks, p 0.687 vs placebo): 0.1 (1.04)
- AIMS (dyskinesia) score change, Average (SD) (40 mg orally once a day for 6 weeks, p 0.978 vs placebo): 0.7 (2.88)
- Changes in AIMS, BAS, SAS score between the treated groups (40 mg, 120 mg and placebo groups): no significant difference
- BAS Global score (akathisia) change, Average (SD) (120 mg orally once a day for 6 weeks, p 0.352 vs placebo): 0.4 (0.94)
- AIMS (dyskinesia) score change, Average (SD) (120 mg orally once a day for 6 weeks, p 0.467 vs placebo): 0.2 (2.21)
- SAS (parkinsonism) score change, Average (SD) (120 mg orally once a day for 6 weeks, p 0.808 vs placebo): 0.1 (1.11)
- Ratio of the patients requiring benztropine (SM-13496-treated groups): 24%
